11 compounds from PubChem BioAssay AID200 (DTP/NCI, 2004) can be followed below.

This test relates to B6C3F1 mice, B16 melanoma ip, median survival T/C. Put plainly: NCI In Vivo Anticancer Drug Screen. Data for tumor model B16 Melanoma (intraperitoneal) in B6C3F1 mice. The following applies: endpoint: median survival time, higher = longer survival. A digest of the protocol:
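Readout: survival or tumor size in treated mice relative to vehicle controls (T/C). Model uses transplantable tumors grown in mice.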

The structures appear in SMILES notation. Values joined by “and” are separate entries in the source; they are usually repeats but may differ in a detail not shown here. Identical values can stand only once. Toxic doses and inconclusive results are not listed.

As for `CC1CN1P1(N2CC2C)=NP(N2CC2C)(N2CC2C)=NP(N2CC2C)(N2CC2C)=N1` (stereo unspecified), the T/C is, setting by setting: (dose: 1.0 mg/kg/injection, schedule: Q01DX009 (ip), vehicle: saline) 98 % of control; (dose: 1.0 mg/kg/injection, schedule: Q02DX009 (ip), vehicle: saline) 96 % of control; (dose: 2.0 mg/kg/injection, schedule: Q01DX009 (ip), vehicle: saline) 100 % of control; (dose: 2.0 mg/kg/injection, schedule: Q02DX009 (ip), vehicle: saline) 102 % of control; (dose: 4.0 mg/kg/injection, schedule: Q01DX009 (ip), vehicle: saline) 106 % of control; (dose: 4.0 mg/kg/injection, schedule: Q02DX009 (ip), vehicle: saline) 101 % of control. For the same compound, the T/C (dose: 8.0 mg/kg/injection, schedule: Q01DX009 (ip), vehicle: saline) is 115 % of control; the T/C (dose: 8.0 mg/kg/injection, schedule: Q02DX009 (ip), vehicle: saline) is 105 % of control; the T/C (dose: 16.0 mg/kg/injection, schedule: Q01DX009 (ip), vehicle: saline) was 117 % of control; the T/C (dose: 32.0 mg/kg/injection, schedule: Q02DX009 (ip), vehicle: saline) is 122 % of control; the T/C (dose: 64.0 mg/kg/injection, schedule: Q01DX009 (ip), vehicle: saline) is 118 % of control; the T/C (dose: 64.0 mg/kg/injection, schedule: Q02DX009 (ip), vehicle: saline) is 94 % of control.
Turning to `C1OC1C1CO1` (stereo unspecified), the T/C reads like this: (dose: 1.25 mg/kg/injection, schedule: Q01DX009 (ip), vehicle: saline) 92 % of control and 104 % of control; (dose: 2.5 mg/kg/injection, schedule: Q01DX009 (ip), vehicle: saline) 91 % of control and 101 % of control (2×); (dose: 5.0 mg/kg/injection, schedule: Q01DX009 (ip), vehicle: saline) 113 % of control and 103 % of control and 105 % of control; (dose: 10.0 mg/kg/injection, schedule: Q01DX009 (ip), vehicle: saline) 117 % of control and 122 % of control; (dose: 20.0 mg/kg/injection, schedule: Q01DX009 (ip), vehicle: saline) 118 % of control and 121 % of control; (dose: 40.0 mg/kg/injection, schedule: Q01DX009 (ip), vehicle: saline) 161 % of control.
Consider `NC=NCC(=O)O`, for which the T/C (dose: 50.0 mg/kg/injection, schedule: Q01DX009 (ip), vehicle: saline) is 108 % of control; the T/C (dose: 100.0 mg/kg/injection, schedule: Q01DX009 (ip), vehicle: saline) is 105 % of control; the T/C (dose: 200.0 mg/kg/injection, schedule: Q01DX009 (ip), vehicle: saline) was 97 % of control.
In the case of `Cc1c(O)ccc(=O)n1O`, the T/C was 101 % of control (dose: 16.0 mg/kg/injection, schedule: Q01DX009 (ip), vehicle: saline with Tween-80); 98 % of control (dose: 32.0 mg/kg/injection, schedule: Q01DX009 (ip), vehicle: saline with Tween-80); 101 % of control (dose: 64.0 mg/kg/injection, schedule: Q01DX009 (ip), vehicle: saline with Tween-80); 104 % of control (dose: 128.0 mg/kg/injection, schedule: Q01DX009 (ip), vehicle: saline with Tween-80).
Take `COc1cc(Cl)ccc1C`: the T/C is 100 % of control (dose: 9.37 mg/kg/injection, schedule: Q01DX009 (ip), vehicle: Klucel (hydroxypropylcellulose) (HPC)); 109 % of control (dose: 18.75 mg/kg/injection, schedule: Q01DX001 (ip), vehicle: Klucel (hydroxypropylcellulose) (HPC)); 100 % of control (dose: 18.75 mg/kg/injection, schedule: Q01DX009 (ip), vehicle: Klucel (hydroxypropylcellulose) (HPC)); 107 % of control (dose: 37.5 mg/kg/injection, schedule: Q01DX001 (ip), vehicle: Klucel (hydroxypropylcellulose) (HPC)); 98 % of control (dose: 37.5 mg/kg/injection, schedule: Q01DX009 (ip), vehicle: Klucel (hydroxypropylcellulose) (HPC)); 115 % of control (dose: 75.0 mg/kg/injection, schedule: Q01DX001 (ip), vehicle: Klucel (hydroxypropylcellulose) (HPC)). The T/C by setting is: (dose: 75.0 mg/kg/injection, schedule: Q01DX009 (ip), vehicle: Klucel (hydroxypropylcellulose) (HPC)) 101 % of control; (dose: 150.0 mg/kg/injection, schedule: Q01DX001 (ip), vehicle: Klucel (hydroxypropylcellulose) (HPC)) 110 % of control; (dose: 150.0 mg/kg/injection, schedule: Q01DX009 (ip), vehicle: Klucel (hydroxypropylcellulose) (HPC)) 100 % of control; (dose: 300.0 mg/kg/injection, schedule: Q01DX001 (ip), vehicle: Klucel (hydroxypropylcellulose) (HPC)) 111 % of control; (dose: 300.0 mg/kg/injection, schedule: Q01DX009 (ip), vehicle: Klucel (hydroxypropylcellulose) (HPC)) 95 % of control.
As for `CCc1nc(N)nc(N)c1-c1ccc(Cl)c([N+](=O)[O-])c1`, the T/C by setting is: (dose: 1.56 mg/kg/injection, schedule: Q01DX009 (ip), vehicle: saline with Tween-80) 106 % of control; (dose: 3.12 mg/kg/injection, schedule: Q01DX009 (ip), vehicle: saline with Tween-80) 105 % of control; (dose: 3.25 mg/kg/injection, schedule: Q01DX009 (ip), vehicle: saline with Tween-80) 100 % of control; (dose: 6.25 mg/kg/injection, schedule: Q01DX009 (ip), vehicle: saline with Tween-80) 111 % of control; (dose: 7.5 mg/kg/injection, schedule: Q01DX009 (ip), vehicle: saline with Tween-80) 101 % of control; (dose: 15.0 mg/kg/injection, schedule: Q01DX009 (ip), vehicle: saline with Tween-80) 103 % of control. For the same compound, the T/C reads like this: (dose: 30.0 mg/kg/injection, schedule: Q01DX009 (ip), vehicle: saline with Tween-80) 104 % of control; (dose: 60.0 mg/kg/injection, schedule: Q01DX009 (ip), vehicle: saline with Tween-80) 114 % of control.
Take `COc1ccccc1Cc1c(OC)cc(OC)c(C(=O)CCc2ccccc2)c1O`: the T/C runs as follows: (dose: 4.3 mg/kg/injection, schedule: Q01DX009 (ip), vehicle: other) 101 % of control; (dose: 6.4 mg/kg/injection, schedule: Q01DX009 (ip), vehicle: other) 92 % of control; (dose: 9.6 mg/kg/injection, schedule: Q01DX009 (ip), vehicle: other) 89 % of control; (dose: 14.0 mg/kg/injection, schedule: Q01DX009 (ip), vehicle: other) 94 % of control.
Regarding `Nc1nc(-c2ccc(Cl)cc2)c(Br)c(=O)[nH]1`, the T/C (dose: 13.0 mg/kg/injection, schedule: Q01DX009 (ip), vehicle: saline with Tween-80) is 104 % of control; the T/C (dose: 26.0 mg/kg/injection, schedule: Q01DX009 (ip), vehicle: saline with Tween-80) is 110 % of control; the T/C (dose: 52.0 mg/kg/injection, schedule: Q01DX009 (ip), vehicle: saline with Tween-80) was 98 % of control; the T/C (dose: 104.0 mg/kg/injection, schedule: Q01DX009 (ip), vehicle: saline with Tween-80) was 120 % of control.
As to `C=C1C(=O)OC2/C=C(\CO)C(OC(C)=O)CC(O)/C(C)=C/C(OC(=O)C(C)CC)C12` (stereo unspecified), the T/C runs as follows: (dose: 0.2 mg/kg/injection, schedule: Q01DX009 (ip), vehicle: Klucel (hydroxypropylcellulose) (HPC)) 96 % of control; (dose: 0.39 mg/kg/injection, schedule: Q01DX009 (ip), vehicle: Klucel (hydroxypropylcellulose) (HPC)) 103 % of control; (dose: 0.78 mg/kg/injection, schedule: Q01DX009 (ip), vehicle: Klucel (hydroxypropylcellulose) (HPC)) 89 % of control and 103 % of control; (dose: 1.56 mg/kg/injection, schedule: Q01DX009 (ip), vehicle: Klucel (hydroxypropylcellulose) (HPC)) 110 % of control and 100 % of control.
Regarding `CCOC(=O)[C@]1(Br)CC[C@@]1(Br)C(=O)OCC`, the T/C is 108 % of control and 104 % of control (dose: 12.5 mg/kg/injection, schedule: Q01DX009 (ip), vehicle: saline with Tween-80); 110 % of control and 105 % of control (dose: 25.0 mg/kg/injection, schedule: Q01DX009 (ip), vehicle: saline with Tween-80); 98 % of control and 106 % of control (dose: 50.0 mg/kg/injection, schedule: Q01DX009 (ip), vehicle: saline with Tween-80); 100 % of control and 107 % of control (dose: 100.0 mg/kg/injection, schedule: Q01DX009 (ip), vehicle: saline with Tween-80); 110 % of control and 105 % of control (dose: 200.0 mg/kg/injection, schedule: Q01DX009 (ip), vehicle: saline with Tween-80).
In the case of `CN(C)c1ccc2c(NCCCCCCNc3ccnc4cc(N(C)C)ccc34)ccnc2c1`, the T/C runs as follows: (dose: 1.56 mg/kg/injection, schedule: Q01DX009 (ip), vehicle: distilled water + alcohol) 94 % of control; (dose: 3.12 mg/kg/injection, schedule: Q01DX009 (ip), vehicle: distilled water + alcohol) 92 % of control; (dose: 6.25 mg/kg/injection, schedule: Q01DX009 (ip), vehicle: distilled water + alcohol) 106 % of control; (dose: 12.5 mg/kg/injection, schedule: Q01DX009 (ip), vehicle: distilled water + alcohol) 116 % of control; (dose: 25.0 mg/kg/injection, schedule: Q01DX009 (ip), vehicle: distilled water + alcohol) 112 % of control.
